Experimental findings from patent US11396501B2, “Heteroaryl compounds as CXCR4 inhibitors, composition and method using the same” (CGENETECH (SUZHOU, CHINA) CO., LTD., priority 2017, dated 2022) are described below.

The IC50 is the concentration that inhibits the measured activity by half.

Some results are limits rather than exact numbers.

T1 sequence (P61073 whole entry): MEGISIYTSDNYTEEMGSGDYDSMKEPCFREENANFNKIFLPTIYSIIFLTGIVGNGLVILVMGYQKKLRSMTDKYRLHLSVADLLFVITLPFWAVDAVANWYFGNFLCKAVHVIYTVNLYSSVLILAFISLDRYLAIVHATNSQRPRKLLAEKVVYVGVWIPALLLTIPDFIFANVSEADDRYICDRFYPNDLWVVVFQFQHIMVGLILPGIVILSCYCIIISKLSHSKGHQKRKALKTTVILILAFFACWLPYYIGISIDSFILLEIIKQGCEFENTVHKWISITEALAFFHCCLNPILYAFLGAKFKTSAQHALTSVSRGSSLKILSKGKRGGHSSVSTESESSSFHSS

The first assay has as its target T1, CXCR4 (Homo sapiens, UniProt P61073). Kind of assay: FLIPR Tetra calcium mobilization assay. The assay is classed as cell-based. Conditions: Human CD4+ T-Cells; CXCL12 added; FLIPR Calcium 4 assay kit. On the procedure: FLIPR Tetra Calcium Mobilization Assay The FLIPR Tetra calcium mobilization assay was performed by HD Bioscience. Briefly, The Molecular Devices, Fluorescent Imaging Plate Reader (FLIPR) Tetra was used in this assay. Excitation was achieved through unique placement of LED's within the instrument and emission captured by a CCD camera (EMCCD camera for FI and ICCD camera for luminescence). The homogeneous FLIPR Calcium 4 assay kit from Molecular Devices was used as the fluorescence reagent. Compounds were solubilized in 100% dimethyl sulfoxide (DMSO) to a concentration of 30 mM. A 10-point, 4-fold, intermediate dilution series was created in 100% DMSO with a top concentration of 4 mM and a bottom concentration of 0.01 μM. A near assay ready, direct dilution plate ([…]) was prepared from this compound dilution plate by transferring 1 μL of each dilution of compound in 100% DMSO to a Greiner #781201 plate. In addition, each […] plate also contained positive and negative control wells to define the upper and lower limits for the assay signal. The final assay concentration range of compound was 10 μM to 0.035 nM in 0.5% DMSO. Human CD^4+ T-Cells were isolated from human whole blood and subsequently activated and expanded using a CD3/CD28 expansion kit (Life Technologies). The cells were frozen in ThermoFisher-formulated Recovery Cell Culture Freezing Medium containing 10% Dimethyl sulfoxide (DMSO) and 10% Fetal Bovine Serum (FBS) (ThermoFisher Catalog No. 10100147). When used, cells were resuspended using room temperature 1× HBSS/20 mM HEPES/0.005% P-104 assay buffer, adjusted the volume of the suspension to achieve a cell concentration of 2.5×10^6 cells/mL. 2× Calcium 4 dye (20 μL/well) were added and the mixture were centrifuged briefly ( 10 s) and stopped when it reached 1000 rpm. The plates were allowed to equilibrate before compounds and CXCL12 were added to the plates. The raw data were analyzed using Abase. The percent (%) effect at each concentration of compound was calculated by Abase and was based on and relative to the amount of calcium produced in the positive and negative control wells contained within each assay plate. The concentrations and % effect values for tested compounds were plotted by Abase and the concentration of compound required for 50% effect (IC50) was determined with a four-parameter logistic dose response equation. FIGS. 3 and 4 summarize the results of Compounds A78 and A83 in the calcium mobilization assay.
In general terms: Calcium assays in cells follow changes in intracellular calcium, usually with a dye or a luminescent sensor.
Regarding `Cc1nc(CN(c2cccc3cccnc23)C2CC2)cc(N2CCN(C)CC2)n1` [Compound D26], the IC50 is 2.3 nM.

Take `Cc1nc(CN(CCCCNC(=O)OC(C)(C)C)c2cccc3cccnc23)cc(N2CCN(C)CC2)n1` [Compound D27]: the IC50 was 1.7 nM.

Take `CSc1nc(CN(C)c2cccc3cccnc23)cc(N2CCN(C)CC2)n1` [Compound D12]: the IC50 was 0.61 nM.

Regarding `Cc1nc(CN(C)c2nccc3cccnc23)cc(N2CCN(C)CC2)n1` [Compound D21, N-methyl-N-((2-methyl-6-(4-methylpiperazin-1-yl)pyrimidin-4-yl)methyl)-1,7-naphthyridin-8-amine], the IC50 is 1580 nM.

For `Cc1cccnc1[C@@H]1CCCN1Cc1nc2cccc(N3CCN(C)CC3)n2c1CO` [Compound C39, (S)-(5-(4-methylpiperazin-1-yl)-2-((2-(3-methylpyridin-2-yl)pyrrolidin-1-yl)methyl)imidazo[1,2-a]pyridin-3-yl)methanol], the IC50 came to 0.1 nM.

Consider `Cc1nc(CN(C)c2cc(F)cc3cccnc23)cc(N2CCN(C)CC2)n1` [Compound D18], for which the IC50 turned out to be 0.79 nM.

`Cc1nc(CN(C)c2cccc3cccnc23)cc(N2CCC(N(C)C)C2)n1` (stereo not drawn) [Compound D7]: the IC50 came to 0.75 nM.

For `Cc1nc(CN(C)c2cccc3cccnc23)c(F)c(N2CCN(C)CC2)n1` [Compound D34], the IC50 amounted to 0.83 nM.

Take `Cc1nc(CN(C)c2cc(C(F)(F)F)cc3cccnc23)cc(N2CCN(C)CC2)n1` [Compound D44]: the IC50 amounted to 104 nM.

On to `CN1CCN(c2cccc3nc(CN(C)c4cccc5cccnc45)c(CO)n23)CC1` [Compound D39], for which the IC50 was 0.088 nM.

As to `Cc1nc(CN(C)[C@@H](C)c2ccccn2)cc(N2CCN(C)CC2CO)n1` (stereo partly drawn) [Compound A84], the IC50 amounted to 3 nM.

For `Cc1nc(CN2CCC[C@H]2c2ncccc2C)cc(NCCN2CCOCC2)n1` [Compound C35], the IC50 stood at 2.7 nM.

For the compound `Cc1nc(CN(C)c2cccc3cccnc23)c(CO)c(N2CCN(C)CC2)n1` [Compound D37], the IC50 stood at 0.95 nM.

Turning to `Cc1nc(CN(C)[C@@H](C)c2ccccn2)c(CO)c(N2CCN(C)[C@@H](C)C2)n1` [Compound A88], the IC50 is 0.3 nM.

With `Cc1cc(N(C)Cc2cc(N3CCN(C)CC3)nc(C)n2)c2ncccc2c1` [Compound D15], the IC50 is 0.4 nM.

Regarding `Cc1nc(CN(C)c2ccc(C#N)c3cccnc23)cc(N2CCN(C)CC2)n1` [Compound D42], the IC50 stood at 96 nM.

The target of the next assay is T1, CXCR4. Kind of assay: HPB-ALL CXCR4 competitive binding assay (12G5 binding assay). On the set-up: HPB-ALL cells were maintained in RPMI-1640 (Gibico) supplemented with 10% FBS (Hyclone); endogenous in cells; host or cells: HPB-ALL cells. Conditions: HPB-ALL cells; competition with APC-conjugated anti-human CXCR4 clone 12G5 at its EC80; 4° C. for 3 h; FACS. On the procedure:
HPB-ALL CXCR4 Competitive Binding Assay
HPB-ALL cells were maintained in RPMI-1640 (Gibico) supplemented with 10% FBS (Hyclone). APC-conjugated anti-human CXCR4 was from Sungene. EC80 was first determined for 12G5 binding to CXCR4. Then the compounds for testing were added into 96-well plates serially diluted at a ratio of 1:3. Cells were washed once with ice-cold assay buffer (DPBS+2% HI-FBS) and then re-suspended in the same buffer at a final concentration of 1×10^6/mL. Cell suspension was then added into the wells and with the addition of APC-conjugated anti-human CXCR4 clone 12G5 at its EC80 determined. The mix of cell, compounds and APC-conjugated anti-human CXCR4 were incubated at 4° C. for 3 h before addition of 100 μL of 4% PFA. Cells were then washed once and resuspended in assay buffer and examined by FACS. The percent (%) effect at each concentration of compound was calculated and relative to the amount of calcium produced in the positive and negative control wells contained within each assay plate. The concentrations and % effect values for tested compounds were plotted and the concentration of compound required for 50% effect (IC50) was determined. Tables 2 summarize results of the CXCR4 competitive binding assay for selected compounds disclosed in the present disclosure. FIGS. 1-2 depict the IC50 curves of compounds A42 and A43.
Regarding `CN1CCN(c2ccnc(CN(C)C3CCCc4cccnc43)n2)CC1` (stereo not drawn) [Compound A50, N-methyl-N-((4-(4-methylpiperazin-1-yl)pyrimidin-2-yl)methyl)-5,6,7,8-tetrahydroquinolin-8-amine], the IC50 stood at 211 nM.

Regarding `Cc1ccnc(C(C)N(C)Cc2cc(N3CCN(C)CC3)nc(C)n2)c1` (stereo not drawn) [Compound A54], the IC50 was 356 nM.

As to `CN(Cc1cc(N2CCN(CCO)CC2)ncn1)C1CCCc2cccnc21` (stereo not drawn) [Compound A5], the IC50 stood at 113 nM.

As to `Cc1ccnc([C@@H]2CCCN2Cc2cc(N3CCN(C)CC3)nc(C)n2)c1` [Compound C26], the IC50 is 206 nM.

Compound `CSc1nc(CN2CCCC2c2ccccn2)cc(N2CCN(C)CC2)n1` (stereo not drawn) [Compound C11] displayed a concentration for half-maximal inhibition (IC50) of 142 nM.

The compound `Cc1nc([C@H]2C[C@@H](O[Si](C)(C)C(C)(C)C)CN2[C@H]2CCCc3cccnc32)cc(N2CCN(C)CC2)n1` [Compound C15] returned an IC50 of 500 nM.

For the compound `Cc1nc(CN(C)[C@H]2CCCc3cccnc32)cc(N2CCN3CCC[C@H]3C2)n1` [Compound A69], the IC50 was 27 nM.

On to `CSc1nc([C@@H](C)N(C)[C@H]2CCCc3cccnc32)cc(N2CCN(C)CC2)n1` [Compound A34], for which the IC50 amounted to 47 nM.

Compound `Cc1nc(CN2CCC[C@H]2c2ncccc2C)cc(N2CCN(C)CC2)n1` [Compound C25] returned an IC50 of 68 nM.

The compound `CCN(Cc1cc(N2CCN(C)CC2)nc(C)n1)C1CCCc2cccnc21` (stereo not drawn) [Compound A57] had an IC50 of 21 nM.

For `CN(C)C1CCN(c2cc(CN(C)C3CCCc4cccnc43)ncn2)CC1` (stereo not drawn) [Compound A25], the IC50 was determined as 100 nM.

For `Cc1nc(CN(C)[C@H]2CCCc3cccnc32)cc(N2CCN(C3COC3)CC2)n1` [Compound A49], the IC50 was determined as 123 nM.

As for `Cc1nc(CN2CCC[C@H]2c2ccccn2)cc(N2CCN(C)CC2)n1` [Compound C23], the IC50 came out at 144 nM.

`CN1CCN(c2cc(CN(C)C3CCCc4cccnc43)nc(N(C)C)n2)CC1` (stereo not drawn) [Compound A12] came in with an IC50 of 8000 nM.

Regarding `CSc1nc(CN2CCCCC2c2ccccn2)cc(N2CCN(C)CC2)n1` (stereo not drawn) [Compound C10], the IC50 stood at 248 nM.

`CSc1nc(CN(C)C(CCCCNC(=O)OC(C)(C)C)c2ccccn2)cc(N2CCN(C)CC2)n1` (stereo not drawn) [Compound A36] showed an IC50 of 5730 nM.

The compound `CCN1CCN(c2cc(CN(C)C3CCCc4cccnc43)ncn2)CC1` (stereo not drawn) [Compound A23] showed an IC50 of 34 nM.

For the compound `CN(C)c1ncc(CN(C)C2CCCc3cccnc32)c(NCCNC(=O)OC(C)(C)C)n1` (stereo not drawn) [Compound B7, reference compound], the IC50 is more than 10000 nM.

Compound `CC(C)Oc1nc(CN(C)C2CCCc3cccnc32)cc(N2CCN(C)CC2)n1` (stereo not drawn) [Compound A31] gave an IC50 of 77 nM.

`CN1CCN(c2cc(CN(C)C3CCCc4cccnc43)nc(-c3cnn(C)c3)n2)CC1` (stereo not drawn) [Compound A21] had a concentration for half-maximal inhibition (IC50) of 790 nM.

`CN1CCN(c2cc(CN(C)[C@H]3CCCc4cccnc43)nc(C(F)(F)F)n2)CC1` [Compound A48] had an IC50 of 240 nM.

With `CN(C)c1ncc(CN(C)C2CCCc3cccnc32)c(NCCN)n1` (stereo not drawn) [Compound B8, reference compound], the IC50 is more than 10000 nM.

The compound `Cc1nc([C@H]2C[C@@H](O)CN2[C@H]2CCCc3cccnc32)cc(N2CCN(C)CC2)n1` [Compound C16, (3R,5R)-5-(2-methyl-6-(4-methylpiperazin-1-yl)pyrimidin-4-yl)-1-((S)-5,6,7,8-tetrahydroquinolin-8-yl)pyrrolidin-3-ol] had an IC50 of 7.74 nM.

Compound `CCN(Cc1cc(N2CCN(C)CC2)nc(C)n1)C1c2ncccc2CCC12CC2` (stereo not drawn) [Compound A44] yielded an IC50 of 296 nM.

Regarding `CN1CCN(c2cc(CN(C)C3CCCc4cccnc43)nc(N(C)CCO)n2)CC1` (stereo not drawn) [Compound A15], the IC50 came out at 606 nM.

For the compound `Cc1nc(CN(C)C2CCCc3cccnc32)cc(N2CCN(C)CC2)n1` (stereo not drawn) [Compound A9, N-methyl-N-((2-methyl-6-(4-methylpiperazin-1-yl)pyrimidin-4-yl)methyl)-5,6,7,8-tetrahydroquinolin-8-amine], the half-maximal inhibitory concentration (IC50) amounted to 14 nM.

`Cc1nc(CN(CC2CC2)C2CCCc3cccnc32)cc(N2CCN(C)CC2)n1` (stereo not drawn) [Compound A59] returned an IC50 of 63 nM.

Consider `CN1CCN(c2cc(N(C)CC3CCCc4cccnc43)ncn2)CC1` (stereo not drawn) [Compound B1], for which the IC50 is more than 10000 nM.

Compound `CSc1nc([C@@H](C)N(C)[C@@H]2CCCc3cccnc32)cc(N2CCN(C)CC2)n1` [Compound A35] displayed an IC50 of 106 nM.

`Cc1nc(CN(C)[C@H]2CCCc3cccnc32)cc(N2CCN(C)[C@H](C)C2)n1` [Compound A65] had an IC50 of 13 nM.

`CCOc1nc(CN(C)C2CCCc3cccnc32)cc(N2CCN(C)CC2)n1` (stereo not drawn) [Compound A30] returned an IC50 of 65 nM.

`Cc1nc(CN(C)[C@H]2CCCc3cccnc32)cc(N2C[C@@H](C)N(C)[C@@H](C)C2)n1` [Compound A67] returned an IC50 of 12 nM.
